# Test results reported in ChEMBL document CHEMBL4004859, “Synthesis, antimalarial activity, heme binding and docking studies of N-substituted 4-aminoquinoline-pyrimidine molecular hybrids” (Eur J Med Chem, 2017).
# The source made the active and inactive calls. The rule behind the calls is not given here.
# How the values were obtained:
# [1] = test system: Plasmodium falciparum; test: Antimalarial activity against chloroquine-sensitive Plasmodium falciparum D6 infected in red blood cells after 72 hrs by Malstat reagent based LDH assay; format: functional, cell-based; details: D6, 72 h
# [2] = test system: Plasmodium falciparum; test: Antimalarial activity against chloroquine-resistant Plasmodium falciparum W2 infected in red blood cells after 72 hrs by Malstat reagent based LDH assay; format: functional, cell-based; details: W2, 72 h
# [3] = Selectivity index, ratio of IC50 for African green monkey Vero cells to IC50 for chloroquine-sensitive Plasmodium falciparum D6 infected in red blood cells; format: toxicity, cell-based; details: read-out: Ratio IC50
# [4] = Selectivity index, ratio of IC50 for African green monkey Vero cells to IC50 for chloroquine-resistant Plasmodium falciparum W2 infected in red blood cells; format: toxicity, cell-based; details: read-out: Ratio IC50
# [5] = test system: Vero; test: Cytotoxicity against African green monkey Vero cells assessed as reduction in cell viability up to 10 uM after 48 hrs by neutral red assay; format: cell-based; details: chlorocebus sabaeus
# [6] = Resistance index, ratio of IC50 for Plasmodium falciparum W2 infected in red blood cells to IC50 for Plasmodium falciparum D6 infected in red blood cells; format: functional
# [7] = test system: Heme; test: Binding affinity to monomeric heme (unknown origin) assessed as mole fraction of compound required to show 1:1 stoichiometry for heme-compound complex at pH 5.6 to 7.4 by Job's plot method
# [8] = test system: Heme; test: Binding affinity to monomeric heme (unknown origin) in DMSO/water solution up to 40 uM at pH 5.6 by titration-based UV-vis spectrophotometric analysis
# [9] = test system: mu-oxodimeric heme; test: Binding affinity to mu-oxodimeric heme (unknown origin) in aqueous NaOH solution up to 15 uM at pH 5.8 by titration-based UV-vis spectrophotometric analysis
# [10] = test system: mu-oxodimeric heme; test: Binding affinity to mu-oxodimeric heme (unknown origin) in aqueous NaOH solution assessed as 1:1 stoichiometry for heme-compound complex at pH 5.8 by Job's plot method
# [11] = test system: Plasmodium falciparum; test: Antimalarial activity against chloroquine-resistant Plasmodium falciparum W2 infected in red blood cells up to 10 uM after 72 hrs by Malstat reagent based LDH assay; format: functional, cell-based
SMILES,IC50 [1],IC50 [2],selectivity ratio [3],selectivity ratio [4],Activity [5],Ratio IC50 [6],Activity (mole fraction) [7],Activity [8],Activity [9],Activity [10],Activity [11]
Cc1cc(Cl)nc(N(CCCNc2ccnc3cc(Cl)ccc23)Cc2ccco2)n1,0.337 µM,0.506 µM,> 29.7,> 19.8,Non-Toxic,1.5,–,–,–,–,–
Cc1cc(N(CCNc2ccnc3cc(Cl)ccc23)Cc2ccco2)nc(N2CCCC2)n1,0.05 µM,0.163 µM,> 200,> 61.3,Non-Toxic,3.26,–,–,–,–,–
Cc1cc(N2CCCC2)nc(N(CCCNc2ccnc3cc(Cl)ccc23)Cc2ccco2)n1,0.051 µM,0.162 µM,> 196,> 61.7,Non-Toxic,3.17,–,–,–,–,–
CCN1CCN(c2nc(C)cc(N(CCNc3ccnc4cc(Cl)ccc34)Cc3ccco3)n2)CC1,0.038 µM,0.04 µM,> 263,> 250,Non-Toxic,1.05,0.5,Active,Active,Active,–
Cc1cc(N(CCNc2ccnc3cc(Cl)ccc23)Cc2ccco2)nc(N2CCOCC2)n1,0.055 µM,0.122 µM,> 182,> 82,Non-Toxic,2.21,–,–,–,–,–
Cc1cc(N2CCCCC2)nc(N(CCNc2ccnc3cc(Cl)ccc23)Cc2ccco2)n1,0.044 µM,0.204 µM,> 222,> 49,Non-Toxic,4.63,–,–,–,–,–
Cc1cc(N2CCCCC2)nc(N(CCCNc2ccnc3cc(Cl)ccc23)Cc2ccco2)n1,0.059 µM,0.197 µM,> 169,> 50.8,Non-Toxic,3.33,–,–,–,–,–
Cc1cc(N2CCN(C)CC2)nc(N(CCNc2ccnc3cc(Cl)ccc23)Cc2ccco2)n1,0.042 µM,0.042 µM,> 238,> 238,Non-Toxic,1,–,–,–,–,–
Cc1cc(N2CCCC2)nc(N(CCNc2ccnc3cc(Cl)ccc23)Cc2ccco2)n1,0.06 µM,0.194 µM,> 167,> 51.5,Non-Toxic,3.23,–,–,–,–,–
CCN(CC)CCCC(C)Nc1ccnc2cc(Cl)ccc12 (stereo not drawn) [CHLOROQUINE],–,–,–,–,Non-Toxic,–,–,–,–,–,–
Cc1cc(Cl)nc(N(CCNc2ccnc3cc(Cl)ccc23)Cc2ccco2)n1,0.08 µM,0.062 µM,> 125,> 161,Non-Toxic,0.775,–,–,–,–,–
CCN1CCN(c2cc(C)nc(N(CCNc3ccnc4cc(Cl)ccc34)Cc3ccco3)n2)CC1,0.042 µM,0.047 µM,> 238,> 213,Non-Toxic,1.11,–,–,–,–,–
CCN1CCN(c2cc(C)nc(N(CCCNc3ccnc4cc(Cl)ccc34)Cc3ccco3)n2)CC1,0.04 µM,0.039 µM,> 250,> 256,Non-Toxic,0.975,–,–,–,–,–
Cc1cc(N(CCNc2ccnc3cc(Cl)ccc23)Cc2ccco2)nc(N2CCN(C)CC2)n1,0.041 µM,0.041 µM,> 244,> 244,Non-Toxic,1,–,–,–,–,–
Cc1cc(N(CCCNc2ccnc3cc(Cl)ccc23)Cc2ccco2)nc(N2CCCC2)n1,0.044 µM,0.076 µM,> 222,> 132,Non-Toxic,1.72,–,–,–,–,–
Cc1cc(N2CCOCC2)nc(N(CCNc2ccnc3cc(Cl)ccc23)Cc2ccco2)n1,0.043 µM,0.063 µM,> 233,> 159,Non-Toxic,1.46,–,–,–,–,–
Cc1cc(N(CCNc2ccnc3cc(Cl)ccc23)Cc2ccco2)nc(Cl)n1,0.064 µM,0.075 µM,> 156,> 133,Non-Toxic,1.17,–,–,–,–,–
Cc1cc(N(CCCNc2ccnc3cc(Cl)ccc23)Cc2ccco2)nc(N2CCN(C)CC2)n1,0.045 µM,0.047 µM,> 206,> 213,Non-Toxic,1.04,–,–,–,–,–
Cc1cc(N2CCOCC2)nc(N(CCCNc2ccnc3cc(Cl)ccc23)Cc2ccco2)n1,0.053 µM,0.167 µM,> 189,> 59.9,Non-Toxic,3.15,–,–,–,–,–
Cc1cc(N(CCNc2ccnc3cc(Cl)ccc23)Cc2ccco2)nc(N2CCCCC2)n1,0.061 µM,0.199 µM,> 164,> 50.2,Non-Toxic,3.26,–,–,–,–,–
C[C@@H]1CC[C@H]2[C@@H](C)C(=O)O[C@@H]3O[C@@]4(C)CC[C@@H]1[C@]32OO4 [ARTEMISININ],0.045 µM,0.023 µM,> 222,435,Non-Toxic,0.511,–,–,–,–,–
Cc1cc(N2CCN(C)CC2)nc(N(CCCNc2ccnc3cc(Cl)ccc23)Cc2ccco2)n1,0.049 µM,0.048 µM,> 204,> 208,Non-Toxic,0.979,–,–,–,–,–
CCc1nc(N)nc(N)c1-c1ccc(Cl)cc1 [PYRIMETHAMINE],–,–,> 1110,–,Non-Toxic,–,–,–,–,–,inactive
Cc1cc(N(CCCNc2ccnc3cc(Cl)ccc23)Cc2ccco2)nc(Cl)n1,0.108 µM,0.454 µM,> 92.6,> 22,Non-Toxic,4.2,–,–,–,–,–
CCN1CCN(c2nc(C)cc(N(CCCNc3ccnc4cc(Cl)ccc34)Cc3ccco3)n2)CC1,0.044 µM,0.043 µM,> 222,> 233,Non-Toxic,0.977,–,–,–,–,–
Cc1cc(N(CCCNc2ccnc3cc(Cl)ccc23)Cc2ccco2)nc(N2CCOCC2)n1,0.046 µM,0.257 µM,> 217,> 38.9,Non-Toxic,5.58,–,–,–,–,–
Cc1cc(N(CCCNc2ccnc3cc(Cl)ccc23)Cc2ccco2)nc(N2CCCCC2)n1,0.043 µM,0.072 µM,> 233,> 139,Non-Toxic,1.67,–,–,–,–,–
